Results published in patent publication US20200399262A1, “COMPOUNDS FOR INHIBITING PROTEIN DEGRADATION AND METHODS OF USE THEREOF IN THE TREATMENT OF CANCER” (PI Therapeutics Ltd, priority 2018, published 2020).

How the values were obtained:
Assay in all cases: Cell viability panel, ATPlite 1Step
Format in all cases: cell-based
786-O = conditions: Homo sapiens, 786-0, Renal cell carcinoma, 72 h exposure, read-out: Compound EC50
Description: (§1) Cell viability panel studies. Cells were diluted in the corresponding ATCC recommended medium and dispensed in a 384-well plate, depending on the cell line used, at a density of 200-6400 cells per well. For each used cell line, the optimal cell density was used. Compound was serially diluted and 8 concentration (0.04-32 μM) were added to the cells for 72 h exposure. At t=end, of ATPlite 1Step™ (PerkinElmer) were used to calculate cell viability. Cell lines marked with asterisk were seeded 24 h prior to treatment in 96-well plates at the density range of 5,000-40,000 cells/well, according to duplication rate, in RPMI 1640 medium containing 10% fetal bovine serum and 2 mM L-glutamine. Compounds were diluted from 10 mM DMSO stock and treatment was applied at the range of 0.04-1 μM. Following incubation at 37° C. for 48 hours with increasing concentrations of the compounds, viability was determined with CyQUANT® Direct Assay Kit (Invitrogen). Output intensities were normalized to values after treatment with DMSO alone, and EC50 values were calculated using the absorbance measurements [time zero, (Tz), growth control, (C), plus the test growth at the four drug concentration levels (Ti)] as follows: [(Ti−Tz)/(C−Tz)]×100 for concentrations for which Ti>/=Tz; [(Ti−Tz)/Tz]×100 for concentrations for which Ti−<Tz.

A-204 = conditions: Homo sapiens, A204, Embryonal rhabdomyosarcoma, 72 h exposure, read-out: Compound EC50
Description: as §1

ACHN = conditions: Homo sapiens, Papillary renal cell carcinoma, 72 h exposure, read-out: Compound EC50
Description: as §1

AN3 CA = conditions: Homo sapiens, Endometrial adenocarcinoma, 72 h exposure, read-out: Compound EC50
Description: as §1

AU-565 = conditions: Homo sapiens, AU565, Breast adenocarcinoma, 72 h exposure, read-out: Compound EC50
Description: as §1

C-33 A = conditions: Homo sapiens, Cervical squamous cell carcinoma, 72 h exposure, read-out: Compound EC50
Description: as §1

COLO 205 = conditions: Homo sapiens, Colon adenocarcinoma, 72 h exposure, read-out: Compound EC50
Description: as §1

DLD-1 = conditions: Homo sapiens, Colon adenocarcinoma, 72 h exposure, read-out: Compound EC50
Description: as §1

DU 145 = conditions: Homo sapiens, Prostate carcinoma, 72 h exposure, read-out: Compound EC50
Description: as §1

Daoy = conditions: Homo sapiens, Medulloblastoma, 72 h exposure, read-out: Compound EC50
Description: as §1

FaDu = conditions: Homo sapiens, Hypopharyngeal squamous cell carcinoma, 72 h exposure, read-out: Compound EC50
Description: as §1

HT = conditions: Homo sapiens, Diffuse large B-cell lymphoma, 72 h exposure, read-out: Compound EC50
Description: as §1

JAR = conditions: Gestational choriocarcinoma, 72 h exposure, read-out: Compound EC50
Description: as §1

KU812 = conditions: Homo sapiens, Chronic myelogenous leukemia, 72 h exposure, read-out: Compound EC50
Description: as §1

LS 174T = conditions: Homo sapiens, LS174T, Colon adenocarcinoma, 72 h exposure, read-out: Compound EC50
Description: as §1

MIA PaCa-2 = conditions: Homo sapiens, Pancreatic ductal adenocarcinoma, 72 h exposure, read-out: Compound EC50
Description: as §1

NCI-H460 = conditions: Homo sapiens, Large cell lung carcinoma, 72 h exposure, read-out: Compound EC50
Description: as §1

OVCAR-3 = conditions: Homo sapiens, High grade ovarian serous adenocarcinoma, 72 h exposure, read-out: Compound EC50
Description: as §1

RD = conditions: Homo sapiens, Embryonal rhabdomyosarcoma, 72 h exposure, read-out: Compound EC50
Description: as §1

RL = conditions: Homo sapiens, Diffuse large B-cell lymphoma, 72 h exposure, read-out: Compound EC50
Description: as §1

SU-DHL-1 = conditions: Homo sapiens, Anaplastic large cell lymphoma, 72 h exposure, read-out: Compound EC50
Description: as §1

SW872 = conditions: Homo sapiens, Liposarcoma, 72 h exposure, read-out: Compound EC50
Description: as §1

T24 = conditions: Homo sapiens, T-24, Bladder carcinoma, 72 h exposure, read-out: Compound EC50
Description: as §1

T98G = conditions: Homo sapiens, Glioblastoma, 72 h exposure, read-out: Compound EC50
Description: as §1

TCCSUP = conditions: Homo sapiens, TCC-SUP, Bladder carcinoma, 72 h exposure, read-out: Compound EC50
Description: as §1

THP-1 = conditions: Homo sapiens, Acute monocytic leukemia, 72 h exposure, read-out: Compound EC50
Description: as §1

TT = conditions: Homo sapiens, Hereditary thyroid gland medullary carcinoma, 72 h exposure, read-out: Compound EC50
Description: as §1

U-2 OS = conditions: Homo sapiens, U2OS, Osteosarcoma, 72 h exposure, read-out: Compound EC50
Description: as §1

VA-ES-BJ = conditions: Epithelioid sarcoma, 72 h exposure, read-out: Compound EC50
Description: as §1

CN(C)CCCS(=O)(=O)N1C/C(=C\c2ccc(C#N)cc2)C(=O)/C(=C/c2ccc(C#N)cc2)C1 [Compound AA]
EC50 (786-O): < 300 nM | EC50 (A-204): < 300 nM | EC50 (ACHN): 300 to 1000 nM | EC50 (AN3 CA): < 300 nM | EC50 (AU-565): < 300 nM | EC50 (C-33 A): < 300 nM | EC50 (COLO 205): < 300 nM | EC50 (DLD-1): < 300 nM | EC50 (DU 145): 300 to 1000 nM | EC50 (Daoy): < 300 nM | EC50 (FaDu): < 300 nM | EC50 (HT): < 300 nM | EC50 (JAR): < 300 nM | EC50 (KU812): < 300 nM | EC50 (LS 174T): < 300 nM | EC50 (MIA PaCa-2): 300 to 1000 nM | EC50 (NCI-H460): < 300 nM | EC50 (OVCAR-3): 300 to 1000 nM | EC50 (RD): < 300 nM | EC50 (RL): < 300 nM | EC50 (SU-DHL-1): < 300 nM | EC50 (SW872): < 300 nM | EC50 (T24): < 300 nM | EC50 (T98G): 300 to 1000 nM | EC50 (TCCSUP): < 300 nM | EC50 (THP-1): 300 to 1000 nM | EC50 (TT): 300 to 1000 nM | EC50 (U-2 OS): < 300 nM | EC50 (VA-ES-BJ): < 300 nM
